Assay results: US20240207265A1, “TREATMENT OF CNS DISEASES WITH sGC STIMULATORS” (Tisento Therapeutics Inc., priority 2021, published 2024)

System: cAMP response element-binding protein (CREB)
Assay: sGC stimulator induced phosphorylation of CREB in rat primary neurons
Format: cell-based
Conditions: Primary neuron, 10 μM DETA-NONOate, free acid, geometrical mean, read-out: pCREB EC50
Experimental: Neurons were isolated from Sprague Dawley rat embryos on embryonic day 18 (E18). Approximately 10 embryos were obtained from each rat, and whole brains were isolated from the embryos. Hippocampus and cortex were dissected from the brains under a stereoscopic microscope using two fine tweezers. The meninges were carefully removed. After dissection, the tissues were chopped and washed gently once with 10 mL of Ca^2+ and Mg^2+ free Hank's balanced salt solution (HBSS, Corning cat #21-022-CM) in a 15-mL conical tube. After washing, 5 mL of a solution of 0.25% trypsin (Invitrogen cat #15090-046) and 0.1% deoxyribonuclease I (DNase I, Sigma cat #DN-25) were added to the tissues, then incubated at 37° C. for 15 min. Next, tissues were washed 3 times with ice-cold HBSS, 3 mL of a solution of 0.1% of DNase I was added, then tissues were slowly pipetted 12 times using a glass Pasteur pipette, followed by centrifugation at 500×g for 10 min. […]
For each test concentration, the compound was diluted in 100% DMSO to 100× its final assay concentration. […] Medium was removed, cells were lysed and levels of pCREB was determined according to Cisbio protocols (phospho-CREB (Ser133) catalog #64CREPEG). Plates were read using Envision instrument (PerkinElmer).
pCREB was determined for each well and analyzed with a […] (log(agonist) vs. response-variable slope) using GraphPad Prism Software v.8. […]

| EC50 [nM] | Structure (SMILES) |
| --- | --- |
| 21 | Cc1cc(F)c(Cc2nc(-c3ncc(F)c(O)n3)cn3ccnc23)cc1F [Compound I-14, 5-fluoro-2-(8-(2,5-difluoro-4-methylbenzyl)imidazo[1,2-a]pyrazin-6-yl)pyrimidin-4-ol] |
| 13 | Oc1nc(-c2cn3ccnc3c(Cc3cc(F)ccc3F)n2)ncc1F [Compound I-20, 5-fluoro-2-(8-(2,5-difluorobenzyl)imidazo[1,2-a]pyrazin-6-yl)pyrimidin-4-ol] |
